# Reference: patent US12492186B2, “Bicyclic heterocyclic compounds useful as IRAK4 inhibitors” (BRISTOL-MYERS SQUIBB COMPANY, priority 2019, dated 2025)
# Molecular target: IRAK4 (Homo sapiens (Human), UniProt Q9NWZ3)
# Experiment: IRAK4 Inhibition Assay
# Type: biochemical
# Details: ATP 500 μM; IRAK4 0.6 nM; 60 min room temperature; Caliper LABCHIP 3000
# Experimental: The assays were performed in U-bottom 384-well plates. The final assay volume was 30 μL prepared from 15 μL additions of enzyme and substrates (fluoresceinated peptide and ATP) and test compounds in assay buffer (20 mM HEPES pH 7.2, 10 mM MgCl2, 0.015% Brij 35 and 4 mM DTT). The reaction was initiated by the combination of IRAK4 with substrates and test compounds. The reaction mixture was incubated at room temperature for 60 min. and terminated by adding 45 μL of 35 mM EDTA to each sample. The reaction mixture was analyzed on the Caliper LABCHIP® 3000 (Caliper, Hopkinton, MA) by electrophoretic separation of the fluorescent substrate and phosphorylated product. Inhibition data were calculated by comparison to no enzyme control reactions for 100% inhibition and vehicle-only reactions for 0% inhibition. The final concentrations of reagents in the assays are ATP, 500 μM; FL-IPTSPITTTYFFFKKK peptide 1.5 μM; IRAK4, 0.6 nM; and DMSO, 1.6%.
# IRAK4, sequence (Q9NWZ3 whole entry, species assumed): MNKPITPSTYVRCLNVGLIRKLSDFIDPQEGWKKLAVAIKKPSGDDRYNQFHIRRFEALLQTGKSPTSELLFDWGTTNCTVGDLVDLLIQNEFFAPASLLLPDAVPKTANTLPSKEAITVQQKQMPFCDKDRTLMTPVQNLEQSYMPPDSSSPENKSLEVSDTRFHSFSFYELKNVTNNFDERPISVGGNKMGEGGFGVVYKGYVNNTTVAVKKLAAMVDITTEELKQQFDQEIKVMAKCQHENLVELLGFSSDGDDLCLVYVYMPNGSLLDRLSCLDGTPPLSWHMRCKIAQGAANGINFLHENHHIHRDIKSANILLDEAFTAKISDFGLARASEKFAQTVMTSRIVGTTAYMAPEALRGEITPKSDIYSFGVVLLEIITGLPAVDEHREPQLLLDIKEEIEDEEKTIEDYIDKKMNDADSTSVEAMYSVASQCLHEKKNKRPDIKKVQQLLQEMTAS
row,SMILES,IC50
1,"O=C(NCCC(F)(F)F)c1cnc2ccc(-c3cn[nH]c3)cc2c1NC1CC(F)(F)C1 [Example 55, 4-((3,3-difluorocyclobutyl)amino)-6-(1H-pyrazol-4-yl)-N-(3,3,3-trifluoropropyl)quinoline-3-carboxamide]",53.1 nM
2,"CC(C)Nc1c(C(=O)NCC2(CO)CC2)cnc2ccc(-c3cn[nH]c3)cc12 [Example 21, N-((1-(hydroxymethyl)cyclopropyl)methyl)-4-(isopropylamino)-6-(1H-pyrazol-4-yl)quinoline-3-carboxamide]",114 nM
3,"CC(C)Nc1c(C(=O)NCCC(C)(C)O)cnc2ccc(-c3ccc(C#N)nc3)cc12 [Example 69, 6-(6-cyanopyridin-3-yl)-N-(3-hydroxy-3-methylbutyl)-4-(isopropylamino)quinoline-3-carboxamide]",131 nM
4,"CC(C)Nc1c(C(=O)NCCC2CC2)cnc2ccc(-c3ccnc(C#N)c3)nc12 [Example 157, 6-(2-cyanopyridin-4-yl)-N-(2-cyclopropylethyl)-4-(isopropylamino)-1,5-naphthyridine-3-carboxamide]",280 nM
5,"CC(C)Nc1c(C(=O)NCCC2CC2)cnc2ccc(-c3cncc(C#N)c3)nc12 [Example 151, 6-(5-cyanopyridin-3-yl)-N-(2-cyclopropylethyl)-4-(isopropylamino)-1,5-naphthyridine-3-carboxamide]",1280 nM
6,"CC(C)Nc1c(C(=O)NCC(C)(C)CO)cnc2ccc(-c3cn[nH]c3)cc12 [Example 19, N-(3-hydroxy-2,2-dimethylpropyl)-4-(isopropylamino)-6-(1H-pyrazol-4-yl)quinoline-3-carboxamide]",94.8 nM
7,"CC(=O)N[C@H]1CC[C@H](NC(=O)c2cnc3ccc(-c4cncc(C#N)c4)nc3c2NC(C)C)CC1 [Example 154, N-((1r,4r)-4-acetamidocyclohexyl)-6-(5-cyanopyridin-3-yl)-4-(isopropylamino)-1,5-naphthyridine-3-carboxamide]",92.7 nM
8,"CC(C)Nc1c(C(=O)NC[C@@H](F)C(C)(C)O)cnc2ncc(-c3cn[nH]c3)cc12 [Example 161, (R)—N-(2-fluoro-3-hydroxy-3-methylbutyl)-4-(isopropylamino)-6-(1H-pyrazol-4-yl)-1,8-naphthyridine-3-carboxamide]",1210 nM
9,"CC(C)Nc1c(C(=O)NCCC2CC2)cnc2ccc(Nc3cncc(F)c3)nc12 [Example 147, N-(2-cyclopropylethyl)-6-((5-fluoropyridin-3-yl)amino)-4-(isopropylamino)-1,5-naphthyridine-3-carboxamide]",900 nM
10,"CNC(=O)CCNC(=O)c1cnc2ccc(-c3cn[nH]c3)cc2c1NCC(F)F [Example 66, 4-((2,2-difluoroethyl)amino)-N-(3-(methylamino)-3-oxopropyl)-6-(1H-pyrazol-4-yl)quinoline-3-carboxamide]",60.7 nM
11,"CC(C)Nc1c(C(=O)NCCC(C)(C)O)cnc2ccc(-c3ccc(F)nc3)cc12 [Example 70, 6-(6-fluoropyridin-3-yl)-N-(3-hydroxy-3-methylbutyl)-4-(isopropylamino)quinoline-3-carboxamide]",119 nM
12,"CC(C)Nc1c(C(=O)NC(CCO)C2CC2)cnc2ccc(-c3cn[nH]c3)cc12 (stereo not shown) [Example 12, N-(1-cyclopropyl-3-hydroxypropyl)-4-(isopropylamino)-6-(1H-pyrazol-4-yl)quinoline-3-carboxamide]",295 nM
13,"CC(C)Nc1c(C(=O)NC(C)(C)C(=O)N2CCOCC2)cnc2ccc(-c3cn[nH]c3)cc12 [Example 91, 4-(isopropylamino)-N-(2-methyl-1-morpholino-1-oxopropan-2-yl)-6-(1H-pyrazol-4-yl) quinoline-3-carboxamide]",1810 nM
14,"CC(C)Nc1c(C(=O)NCC2(C)NC(=O)NC2=O)cnc2ccc(-c3cn[nH]c3)cc12 (stereo not shown) [Example 105, 4-(isopropylamino)-N-((4-methyl-2,5-dioxoimidazolidin-4-yl)methyl)-6-(1H-pyrazol-4-yl)quinoline-3-carboxamide]",338 nM
15,"CC(C)(O)CCNC(=O)c1cnc2ccc(-c3cncs3)cc2c1NC1COC1 [Example 41, N-(3-hydroxy-3-methylbutyl)-4-(oxetan-3-ylamino)-6-(thiazol-5-yl)quinoline-3-carboxamide]",210 nM
16,"CC(C)Nc1c(C(=O)NC[C@@H](F)C(C)(C)O)cnc2ccc(-c3cncc(C#N)c3)cc12 [Example 4, (R)-6-(5-cyanopyridin-3-yl)-N-(2-fluoro-3-hydroxy-3-methylbutyl)-4-(isopropylamino)quinoline-3-carboxamide]",296 nM
17,"CC(C)Nc1c(C(=O)NCCC(C)(C)O)cnc2ccc(-c3cccnc3)nc12 [Example 146, N-(3-hydroxy-3-methylbutyl)-4-(isopropylamino)-6-(pyridin-3-yl)-1,5-naphthyridine-3-carboxamide]",89.8 nM
18,"CC(C)Cc1nc(-c2cnc3ccc(-c4cn[nH]c4)cc3c2NC(C)C)n[nH]1 [Example 124, 3-(5-isobutyl-1H-1,2,4-triazol-3-yl)-N-isopropyl-6-(1H-pyrazol-4-yl)quinolin-4-amine]",107 nM
19,"CC(C)Nc1c(C(=O)NCCc2ncno2)cnc2ccc(-c3cn[nH]c3)cc12 [Example 106, N-(2-(1,2,4-oxadiazol-5-yl)ethyl)-4-(isopropylamino)-6-(1H-pyrazol-4-yl)quinoline-3-carboxamide]",118 nM

# Now those with a lower IC50, led by results:
row,IC50,SMILES
1,46.2 nM,"CC(C)Nc1c(C(=O)NC[C@@H](F)C(C)(C)O)cnc2ccc(-c3cccnc3)cc12 [Example 3, (R)—N-(2-fluoro-3-hydroxy-3-methylbutyl)-4-(isopropylamino)-6-(pyridin-3-yl) quinoline-3-carboxamide]"
2,20.7 nM,"CC(=O)N1CCCC1CCNC(=O)c1cnc2ccc(-c3cn[nH]c3)cc2c1NC(C)C (stereo not shown) [Example 85, N-(2-(1-acetylpyrrolidin-2-yl)ethyl)-4-(isopropylamino)-6-(1H-pyrazol-4-yl) quinoline-3-carboxamide]"
3,20.1 nM,"O=C(NCCC1CC1)c1cnc2ccc(-c3cn[nH]c3)cc2c1NCC(F)F [Example 75, N-(2-cyclopropylethyl)-4-((2,2-difluoroethyl)amino)-6-(1H-pyrazol-4-yl)quinoline-3-carboxamide]"
4,22.9 nM,"O=C(NCCC(F)F)c1cnc2ccc(-c3cn[nH]c3)cc2c1NCC(F)F [Example 67, 4-((2,2-difluoroethyl)amino)-N-(3,3-difluoropropyl)-6-(1H-pyrazol-4-yl)quinoline-3-carboxamide]"
5,48.9 nM,"CC(C)Nc1c(C(=O)NCC2(CO)COC2)cnc2ccc(-c3cn[nH]c3)cc12 [Example 20, N-((3-(hydroxymethyl)oxetan-3-yl)methyl)-4-(isopropylamino)-6-(1H-pyrazol-4-yl)quinoline-3-carboxamide]"
6,24.2 nM,"CC(C)Nc1c(C(=O)NCCC(C)(C)O)cnc2ccc(-c3ccncc3)nc12 [Example 145, N-(3-hydroxy-3-methylbutyl)-4-(isopropylamino)-6-(pyridin-4-yl)-1,5-naphthyridine-3-carboxamide]"
7,40.2 nM,"Cc1cc(CNC(=O)c2cnc3ccc(-c4cn[nH]c4)cc3c2NC(C)C)on1 [Example 16, 4-(isopropylamino)-N-((3-methylisoxazol-5-yl)methyl)-6-(1H-pyrazol-4-yl)quinoline-3-carboxamide]"
8,29.9 nM,"COC(=O)NC1CC(NC(=O)c2cnc3ccc(-c4cn[nH]c4)cc3c2NC2CC(F)(F)C2)C1 (stereo not shown) [Example 58, methyl ((1r,3r)-3-(4-((3,3-difluorocyclobutyl)amino)-6-(1H-pyrazol-4-yl)quinoline-3-carboxamido)cyclobutyl)carbamate]"
9,33.5 nM,"CC(C)(O)CCNC(=O)c1cnc2ccc(-c3cn[nH]c3)cc2c1NC1COC1 [Example 40, N-(3-hydroxy-3-methylbutyl)-4-(oxetan-3-ylamino)-6-(1H-pyrazol-4-yl)quinoline-3-carboxamide]"
10,24.5 nM,"CC(C)Nc1c(C(=O)NC2CCN(C(=O)CC(F)(F)F)CC2)cnc2ccc(-c3cn[nH]c3)cc12 [Example 83, 4-(isopropylamino)-6-(1H-pyrazol-4-yl)-N-(1-(3,3,3-trifluoropropanoyl)piperidin-4-yl)quinoline-3-carboxamide]"
11,29.3 nM,"CC(C)Nc1c(C(=O)NCCC2CCCN2C(=O)C2CC2)cnc2ccc(-c3cn[nH]c3)cc12 (stereo not shown) [Example 93, N-(2-(1-(cyclopropanecarbonyl)pyrrolidin-2-yl)ethyl)-4-(isopropylamino)-6-(1H-pyrazol-4-yl)quinoline-3-carboxamide]"
12,32.8 nM,"CC(C)Nc1c(C(=O)NC2CCN(S(=O)(=O)CCC(F)(F)F)CC2)cnc2ccc(-c3cn[nH]c3)cc12 [Example 89, 4-(isopropylamino)-6-(1H-pyrazol-4-yl)-N-(1-((3,3,3-trifluoropropyl)sulfonyl)piperidin-4-yl)quinoline-3-carboxamide]"
13,34.4 nM,"CC(C)CCc1nc(-c2cnc3ccc(-c4cn[nH]c4)cc3c2NC(C)C)n[nH]1 [Example 126, 3-(5-isopentyl-1H-1,2,4-triazol-3-yl)-N-isopropyl-6-(1H-pyrazol-4-yl)quinolin-4-amine]"
14,22.6 nM,"CC(=O)NC1CC(NC(=O)c2cnc3ccc(-c4cn[nH]c4)cc3c2NC2CC(F)(F)C2)C1 (stereo not shown) [Example 57, N-((1r,3r)-3-acetamidocyclobutyl)-4-((3,3-difluorocyclobutyl)amino)-6-(1H-pyrazol-4-yl)quinoline-3-carboxamide]"
15,38 nM,"CC(C)Nc1c(C(=O)N[C@H]2C[C@H](O)C2)cnc2ccc(-c3cn[nH]c3)cc12 [Example 60, N-((1r,3r)-3-hydroxycyclobutyl)-4-(isopropylamino)-6-(1H-pyrazol-4-yl)quinoline-3-carboxamide]"
